pIC50: −log10 of the molar value. Values joined by “and” are separate entries in the source; they are usually repeats but may differ in a detail not shown here. Equal entries are not always repeated.
What was measured:
Genome polyprotein [1] = target: T1, Genome polyprotein (dengue virus type 2, UniProt P29990); format: functional, Thailand/16681/1984
Genome polyprotein [2] = target: T1, Genome polyprotein; format: functional, Thailand/16681/1984; remark: listed apart in the source

T1 sequence (P29990 1346-1475 limits assumed): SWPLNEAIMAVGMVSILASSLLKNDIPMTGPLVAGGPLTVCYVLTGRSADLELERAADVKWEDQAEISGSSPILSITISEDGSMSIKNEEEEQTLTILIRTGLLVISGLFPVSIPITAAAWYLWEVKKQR
T1 sequence (P29990 1476-2093 limits assumed): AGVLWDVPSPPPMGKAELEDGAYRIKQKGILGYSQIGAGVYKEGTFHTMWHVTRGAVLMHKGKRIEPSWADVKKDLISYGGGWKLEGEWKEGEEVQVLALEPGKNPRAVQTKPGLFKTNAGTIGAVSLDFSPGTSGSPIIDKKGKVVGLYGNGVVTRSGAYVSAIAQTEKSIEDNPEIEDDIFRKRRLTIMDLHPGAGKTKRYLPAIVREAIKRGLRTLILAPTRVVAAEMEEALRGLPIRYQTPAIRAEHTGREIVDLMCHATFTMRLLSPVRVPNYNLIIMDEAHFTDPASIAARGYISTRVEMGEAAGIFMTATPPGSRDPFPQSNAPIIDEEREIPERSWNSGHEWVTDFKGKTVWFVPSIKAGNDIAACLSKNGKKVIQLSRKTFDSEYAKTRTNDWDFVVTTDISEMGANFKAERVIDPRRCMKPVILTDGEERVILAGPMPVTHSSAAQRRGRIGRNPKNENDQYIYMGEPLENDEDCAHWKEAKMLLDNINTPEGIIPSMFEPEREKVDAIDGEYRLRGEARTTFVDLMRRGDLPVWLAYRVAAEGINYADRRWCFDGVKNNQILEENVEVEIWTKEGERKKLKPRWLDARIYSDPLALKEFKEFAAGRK

Row | Compound | pIC50 (Genome polyprotein [1]) | pIC50 (Genome polyprotein [2])
1 | CCOC(=O)[C@H](Nc1ccc2c(c1)CNC2)c1cc(Cl)cc(C2CC2)c1 | 4.12 | 4.05
2 | O=C(Nc1ccc2c(c1)CNC2)c1ccc2c(c1)C1(CC1)C(=O)N2 | < 4.00 | < 4.00
3 | O=C1Cc2c(cccc2C(=O)Nc2ccc3c(c2)[C@H](O)CCO3)N1 | < 4.00 | < 4.00
4 | CSc1cc2c(cc1NC(=O)c1cc(F)cc3[nH]ncc13)CNC2 | 4.15 | < 4.00
5 | O=C1Cc2c(cccc2C(=O)Nc2ccnn2Cc2ccncc2)N1 | < 4.00 | < 4.00
6 | CN1CCC[C@H](c2nc3c(C(=O)Nc4ccc5c(c4)CNC5)cc(F)cc3[nH]2)C1=O | < 4.00 | < 4.00
7 | O=C(NCC(F)F)[C@H](Nc1ccc2c(c1)CNC2)c1cc(Br)cc2nc[nH]c12 | < 4.00 | < 4.00
8 | O=C1Cc2c(cccc2C(=O)Nc2nnc3n2CCCS3)N1 | < 4.00 | < 4.00
9 | O=C(O)COc1ccc(Cl)cc1[C@H](Nc1ccc2c(c1)CNC2)C(=O)NCC(F)F | < 4.00 | < 4.00
10 | NC(=O)c1cn(C2CCCC2)nc1NC(=O)c1cccc2c1CC(=O)N2 | < 4.00 | < 4.00
11 | O=C1Cc2c(cccc2C(=O)Nc2cnn(Cc3ccncc3)c2)N1 | < 4.00 | < 4.00
12 | CC(C)(C)OC(=O)N1Cc2cc(NC(=O)c3cc(Cl)cc4c3cnn4[C@@H]3CCCCO3)ccc2[C@H]1CO | < 4.00 | < 4.00
13 | CO[C@]1(C)C(=O)Nc2cc(F)cc(C(=O)Nc3ccc4c(c3)CNC4)c21 | < 4.00 | < 4.00
14 | O=C1Cc2c(cccc2C(=O)Nc2ccc3c(c2)CCNCC3)N1 | 4.68 | 4.47
15 | C[C@]1(OCCCO)C(=O)Nc2cc(F)cc(C(=O)Nc3ccc4c(c3)CNC4)c21 | < 4.00 | < 4.00
16 | O=C(Nc1cnc2c(c1)CNC2)c1cc(F)cc2[nH]ncc12 | 4.44 | 4.33 and 4.30
17 | CC(C)CO[C@]1(C)C(=O)Nc2cc(F)cc(C(=O)Nc3ccc4c(c3)CNC4)c21 | < 4.00 | < 4.00
18 | Cc1cc(C(=O)Nc2ccc3c(c2)CNC3)cc2nn[nH]c12 | < 4.00 | < 4.00
19 | CC(C)c1nnc(-c2nc3c(C(=O)Nc4ccc5c(c4)CNC5)cc(F)cc3[nH]2)s1 | 4.45 and 4.46 | 4.19 and 4.17
20 | CNC(=O)c1cc(Br)cc([C@H](Nc2ccc3c(c2)CNC3)C(=O)NCC(F)F)c1 | < 4.00 | < 4.00
21 | O=C1Nc2ccc(C(=O)Nc3ccc4c(c3)CNC4)cc2C1=O | 5.57 and 5.70 | 5.27 and 5.24
22 | CCS(=O)(=O)c1ccc(Cl)cc1[C@H](Nc1ccc2c(c1)CNC2)C(=O)NCC(F)F | < 4.00 | < 4.00
23 | COc1ccc(-c2nc3c(C(=O)Nc4ccc5c(c4)CNC5)cc(F)cc3[nH]2)nn1 | 4.94 and 4.72 and 5.08 | 4.49 and 4.72 and 4.42 and 4.44

Row | Compound | pIC50 (Genome polyprotein [1]) | pIC50 (Genome polyprotein [2])
24 | Cc1c(C(=O)Nc2cc(C(=O)N3CC4(CCO4)C3)ccn2)cc(C2CC2)n1C | < 4.00 | < 4.00
25 | O=C1Cc2c(cccc2C(=O)Nc2cnc(OC3CCC3)nc2)N1 | < 4.00 | < 4.00
26 | Cn1nc([C@H](Nc2cc([C@H]3CCOC3)ccn2)C(F)(F)F)cc1C1CC1 | < 4.00 | < 4.00
27 | COc1cc(Cl)cc([C@H](Nc2ccc3c(c2)CNC3)C(=O)NCC(F)F)c1 | < 4.00 | < 4.00
28 | Cc1cc(CN)cc(NC(=O)c2cccc3c2CC(=O)N3)c1 | 4.12 | < 4.00
29 | Cc1c(C(=O)Nc2cc(C(=O)N(C)C3COC3)ccn2)cc(C2CC2)n1C | < 4.00 | < 4.00
30 | O=C1Cc2c(cccc2C(=O)Nc2ccc(Cl)c(CO)n2)N1 | < 4.00 | < 4.00
31 | O=C(Nc1ccc2c(c1)CNC2)c1cc(F)cc(-c2cnc3n2CCC3)c1 | < 4.00 | < 4.00
32 | N#CCc1cc(NC(=O)c2cc(F)cc3[nH]ncc23)cc2c1CNC2 | 4.63 | 4.42 and 4.72
33 | C[C@]1(OCCO)C(=O)Nc2cc(F)cc(C(=O)Nc3ccc4c(c3)CNC4)c21 | < 4.00 | < 4.00
34 | O=C(NCC(F)F)[C@H](Nc1ccc2c(c1)CNC2)c1cc(Cl)cc(Cl)c1OCCN1CCOCC1 | < 4.00 | < 4.00
35 | NCc1ccc(-c2csc3cc(C(=O)Nc4ccc5c(c4)CNC5)ccc23)cc1 | 4.55 and 4.74 | < 4.00
36 | O=C1Cc2c(cccc2C(=O)Nc2ccc3c(c2)CNCC3)N1 | 4.12 | < 4.00
37 | O=C(NCC(F)F)[C@H](Nc1cnc2c(c1)CNC2)c1cc(Cl)cc(C2CC2)c1 | < 4.00 | < 4.00
38 | CC(C)Oc1ccc(Cl)cc1[C@H](Nc1ccc2c(c1)CNC2)C(=O)NCC(F)F | < 4.00 | < 4.00
39 | Cc1cc([C@H](Nc2ccc3c(c2)CNC3)C(=O)NCC(F)F)cc(C(F)(F)F)c1 | < 4.00 | < 4.00
40 | NCCCn1c(C2CC2)cc(C(=O)Nc2cc([C@H]3CCOC3)ccn2)c1C1CC1 | < 4.00 | < 4.00
41 | O=C(Nc1ccc2c(c1)CNC2)c1cccc2c(C3CNC3)n[nH]c12 | 4.72 and 4.76 | 4.64 and 4.58
42 | O=C(NCC(F)F)[C@H](Nc1ccc2c(c1)CNC2)c1cc(Br)ccc1OCc1ccccn1 | < 4.00 | < 4.00
43 | Clc1cc(CNc2ccc3c(c2)[C@@H]2CC[C@H]3N2)c2cn[nH]c2c1 | < 4.00 | < 4.00
44 | O=C1Cc2c(cccc2C(=O)Nc2cccc(Cc3nn[nH]n3)c2)N1 | < 4.00 | < 4.00
45 | O=C1Cc2c(cccc2C(=O)Nc2ccc3c(c2)CNCCO3)N1 | < 4.00 | < 4.00
46 | NCc1cccc(NC(=O)c2cccc3c2CC(=O)N3)c1 | < 4.00 | < 4.00

Row | Compound | pIC50 (Genome polyprotein [1]) | pIC50 (Genome polyprotein [2])
47 | CS(=O)(=O)c1cncc(-c2cc(F)cc(C(=O)Nc3ccc4c(c3)CNC4)c2)c1 | < 4.00 | < 4.00
48 | O=C(NCC(F)F)[C@H](Nc1ccc2c(c1)CNC2)c1cc(Br)cc2cn[nH]c12 | < 4.00 | < 4.00
49 | CC(=O)N(c1ccc2c(c1)CNC2)[C@H](C(=O)NCC(F)F)c1cc(Cl)cc(C2CC2)c1 | < 4.00 | < 4.00
50 | COCCO[C@]1(C)C(=O)Nc2cc(F)cc(C(=O)Nc3ccc4c(c3)CNC4)c21 | < 4.00 | < 4.00
51 | O=C(NCC(F)F)[C@H](Nc1ccc2c(c1)CNC2)c1cc(Br)ccc1C1CC1 | < 4.00 | < 4.00
52 | CCc1cnc2c(NC(=O)c3cccc4c3CC(=O)N4)cnn2c1 | < 4.00 | < 4.00
53 | O=C(Nc1ccc2c(c1)CNC2)c1cc(F)cc2[nH]c(-c3ccc(F)cc3O)nc12 | 4.21 | < 4.00
54 | N#Cc1c[nH]c2c(C(=O)Nc3ccc4c(c3)CNC4)cccc12 | < 4.00 | < 4.00
55 | O=C1Cc2c(cccc2C(=O)Nc2ccc3c(n2)CNC3)N1 | < 4.00 | < 4.00
56 | NCCc1cccc(NC(=O)c2cccc3c2CC(=O)N3)c1 | < 4.00 | < 4.00
57 | O=C(NCC(F)F)[C@H](Nc1ccc2c(c1)CNC2)c1cc(Br)cc2ccccc12 | < 4.00 | < 4.00
58 | Cc1[nH]c2c(C(=O)Nc3ccc4c(c3)CNC4)cccc2c1C | < 4.00 | < 4.00
59 | O=C(Nc1cc2c(cn1)CNC2)c1cc(F)cc2[nH]ncc12 | < 4.00 | < 4.00
60 | O=C(O)C[C@H]1NCc2cc(NC(=O)c3cc(Cl)cc4[nH]ncc34)ccc21 | < 4.00 | < 4.00
61 | O=C(NCC(F)F)[C@H](Nc1ccc2c(c1)CNC2)c1cc(Cl)ccc1OC[C@H]1CCCO1 | < 4.00 | < 4.00
62 | O=C(Nc1ccc2c(c1)CNC2)c1cccc2c3c([nH]c12)CCC3 | < 4.00 | < 4.00
63 | O=C1CCc2cc(C(=O)Nc3ccc4c(c3)CNC4)cc(F)c2N1 | < 4.00 | < 4.00
64 | CC(C)O[C@]1(C)C(=O)Nc2cc(F)cc(C(=O)Nc3ccc4c(c3)CNC4)c21 | < 4.00 | < 4.00
65 | Cc1c(C(=O)Nc2cc(C(=O)N3CC(C(N)=O)C3)ccn2)cc(C2CC2)n1C | < 4.00 | < 4.00
66 | C[C@H](NC(=O)c1cccc2c1CC(=O)N2)c1nnc2n1CCCC2 | < 4.00 | < 4.00
67 | N[C@H]1Cc2ccc(NC(=O)c3cccc4c3CC(=O)N4)cc2C1 | 4.69 | 4.31 and 4.25
68 | CC(C)n1nncc1-c1cc(F)cc(C(=O)Nc2ccc3c(c2)CNC3)c1 | 4.05 | < 4.00

Source: ChEMBL document CHEMBL5604063, “ASAP - DENV-2 NS2B-NS3 protease fluorescence dose response” (2024)
